Earlier results as cited in US20170281596A1, “PHARMACEUTICAL COMBINATION CONTAINING AN ANALGESIC AGENT AND AN ANTISPASMODIC AGENT” (priority 2014, published 2017).

time at which the plasma concentration level is reached (administered every 6 hours): 24 h | urinary elimination of Ketorolac and its metabolites (main route of elimination, remainder through feces): 92%
Compound: O=C(c1ccccc1)c1ccc2n1CCC2C(=O)O (centres unmarked) [Ketorolac, carboxylic acid-5-Benzoyl-2,3-dihydro-1H-pyrrolisine-1,2-amino-2-hydroxymethyl-1,3-propanediol]
